Data: PubChem BioAssay (NCI)
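Tested at 5 concentrations; 48 h exposure; 96-well plates; endpoints linearly interpolated, else capped at highest concentration. GI50 is the concentration that inhibits growth by half. TGI is the concentration that stops growth completely.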

How the values were obtained:
Experiment in all cases: DTP human tumour cell line panel, 48 h
PC-3 prostate = tested on: PC-3 prostate
OVCAR-5 ovarian = tested on: OVCAR-5 ovarian
SN12C renal = tested on: SN12C renal
KM12 colon = tested on: KM12 colon
COLO 205 colon = tested on: COLO 205 colon
MALME-3M melanoma = tested on: MALME-3M melanoma
EKVX NSCLC = tested on: EKVX NSCLC

COc1cc(S(=O)(=O)Nc2ccc(C(=O)/C=C/c3ccc(O)cc3)cc2)ccc1F
GI50 (PC-3 prostate): > 100 µM
TGI (PC-3 prostate): > 100 µM
GI50 (OVCAR-5 ovarian): > 100 µM
TGI (OVCAR-5 ovarian): > 100 µM
GI50 (SN12C renal): 2.61 µM
TGI (SN12C renal): 89.7 µM
GI50 (KM12 colon): > 100 µM
TGI (KM12 colon): > 100 µM
GI50 (COLO 205 colon): > 100 µM
TGI (COLO 205 colon): > 100 µM
GI50 (MALME-3M melanoma): 35.1 µM
TGI (MALME-3M melanoma): > 100 µM
GI50 (EKVX NSCLC): 80.5 µM
TGI (EKVX NSCLC): > 100 µM
